The results in this text go back to ChEMBL document CHEMBL1139524, “Decoys for docking” (J Med Chem, 2005).

Broadly, the Kd is the constant that tells how readily two partners part at equilibrium. Low readings indicate higher affinity, high ones lower affinity.

For one experiment, the target named is Endolysin (Enterobacteria phage T4, UniProt P00720, L99A). Set-up: species or system Tequatrovirus T4.
Consider `CCc1ccc(C)cc1`, for which the Kd stood at 120 µM.
Consider `CCCc1ccccc1`, for which the Kd was found to be 18 µM.
The same measure, in the same setting: for `CCc1cccc(C)c1` the value was 198 µM; for `CCc1ccccc1C`, 505 µM; for `c1ccc2occc2c1` [BENZOFURAN], 112 µM.
Turning to `c1ccc2sccc2c1` [BENZOTHIOPHENE], the dissociation constant (Kd) was 74 µM.
As for `C1=Cc2ccccc2C1` [INDENE], the Kd stood at 193 µM.
Compound `Cc1cccc(C)c1` [M-XYLENE] came in with a Kd of 364 µM.

Another experiment addresses Endolysin (Enterobacteria phage T4, UniProt P00720, L99A/M102Q). Nature of the experiment: Dissociation constant against T4 lysozyme mutant L99A/M102Q. Set-up: species or system Tequatrovirus T4.
For the compound `Nc1ccccc1F`, binding was characterised by a dissociation constant (Kd) of 100 µM.
The same measure, in the same setting: then `Oc1cccc(Cl)c1`, with 56 µM.
Compound `Cc1cc[nH]c1` gave a Kd of 159 µM.

Another experiment deals with T1, Beta-lactamase (Escherichia coli K-12, UniProt P00811). Briefly: Apparent inhibitory constant against beta-lactamase AmpC from Escherichia coli.
T1 sequence (P00811 whole entry): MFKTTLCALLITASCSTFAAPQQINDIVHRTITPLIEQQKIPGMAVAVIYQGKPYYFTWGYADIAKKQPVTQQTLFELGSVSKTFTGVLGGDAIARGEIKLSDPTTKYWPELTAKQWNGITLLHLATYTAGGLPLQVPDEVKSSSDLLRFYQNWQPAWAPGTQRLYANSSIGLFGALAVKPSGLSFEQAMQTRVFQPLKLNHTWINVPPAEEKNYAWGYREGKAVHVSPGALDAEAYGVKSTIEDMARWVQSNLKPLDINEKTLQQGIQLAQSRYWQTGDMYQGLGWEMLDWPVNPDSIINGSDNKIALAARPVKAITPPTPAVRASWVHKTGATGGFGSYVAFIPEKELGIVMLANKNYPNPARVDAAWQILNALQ
As to `NS(=O)(=O)c1ccc(NS(=O)(=O)c2ccsc2C(=O)O)cc1`, the Ki was found to be 93 µM.

Another experiment concerns the target T1, Beta-lactamase. Briefly: Inhibitory constant against beta-lactamase AmpC from Escherichia coli.
Compound `O=C(O)c1sccc1S(=O)(=O)Nc1ccc(Cl)cc1` had a Ki of 26 µM.
